How the values were obtained:
[1] = test system: ear edema induced by croton oil in mice; assay: croton oil-induced ear edema in mice; format: in vivo; conditions: ICR male mice, dose 1.0 mg/kg, positive control
Procedure: On the basis of the inhibition of croton oil-induced ear edema in mice, the topical anti-inflammatory activity of the test compounds was evaluated. Animal experiments were performed in accordance to the Institutional Guidelines for Animal Care and Use of the Chinese Academy of Medical Sciences and Peking Union Medical College. The protocol was approved by the Committee on the Ethics of Animal Experiments of the Chinese Academy of Medical Sciences and Peking Union Medical College (permit pumber: 002973).The croton oil (Croton tiglium L., seed oil) was purchased from Sigma-Aldrich (St. Louis, MO, USA). In ICR male mice (18–20 g, n = 10 per group), croton oil (0.4 mg) was mixed with acetone (1 mL) to be applied to the left ear (10 μL each side) topically to induce ear edema. The animals were administered with candidate extracts (50 mg/kg) for 1 h, followed by treatment with croton oil for 4 h. […] Based on the weight difference between two plugs (8 mm diameter) of the treated (left) and untreated (right) ears, the edematous response was measured. The percentage reduction in edema in treated mice compared with control mice is calculated for the expression of anti-inflammatory activity.

[2] = test system: LPS-induced NO production in mouse BV2 microglial cells; assay: inhibition of LPS-induced NO production (Griess); format: cell-based; conditions: BV-2, LPS 1 μg/mL, 24 h, n = 3, read-out: IC50 against LPS-induced NO production
Procedure: BV2 microglial cells were maintained in RPMI1640 medium at 37 °C in 5% CO2. The cells were placed in 48-well plates and preincubated for 24 h, treated with tested triterpene glycosides dissolved in DMSO at various final concentrations (5.0, 10.0, 20.0, 40.0, 80.0 μM) in triplicate for 1 h, and continuously incubated with LPS (1 μg/mL) for 24 h. Dexamethasone (10^−6 M) was used as the positive control. From each well, the supernatants (100 μL) were mixed with an equal amount of Griess reagent at room temperature for 20 min. The concentration of NO2^− was measured for the amount of NO by a microplate reader at 570 nm, using sodium nitrite as the standard to calculate the concentration of the nitrite.

BV2 microglial cells = assay: cytotoxicity, MTT assay; format: cell-based, mouse; conditions: for Cell Viability: 24 h, BV2 microglial cells, n = 3, in % (unit assumed)
Procedure: Cell viabilities were measured using the MTT assay. Briefly, BV2 microglial cells were seeded in 96-well plates at concentrations of 1 × 10^5 cells per well. After incubation for 2 h, the cells were incubated with compounds for 24 h and then washed with PBS three times. Following the washing step, 200 μL of RPMI 1640 medium containing 0.5 mg/mL MTT were added to each well, the cells were then incubated at 37 °C for another 4 h. Finally, the culture medium was removed, and the formazan crystal was dissolved by adding 150 μL of DMSO. Absorbances at 570 nm were measured using a microplate reader.

SMILES	Edema Degree [1]	Inhibitation Rate ([1]; ear edema vs control group)	IC50 [2]	Cell Viability (BV2 microglial cells; 5.0 μM)	Cell Viability (BV2 microglial cells; 10.0 μM)	Cell Viability (BV2 microglial cells; 20.0 μM)	Cell Viability (BV2 microglial cells; 40.0 μM)	Cell Viability (BV2 microglial cells; 80.0 μM)	cytotoxic activity against microglial cell, in words (BV2 microglial cells; BV2 microglial cells in vitro)
C[C@@H]1C[C@H]2[C@@H]3CCC4=CC(=O)C=C[C@]4(C)[C@@]3(F)[C@@H](O)C[C@]2(C)[C@@]1(O)C(=O)CO [Dexamethasone, reference compound]	5.80 ± 0.90 mg	71.0%	0.03 µM	101.02 ± 1.01	99.98 ± 1.32	100.25 ± 1.67	101.37 ± 1.83	99.78 ± 1.63	–
CCCCOC(=O)C1OC(OC2CCC3(C)C(CCC4(C)C3CC=C3C5C(C(=O)OC6OC(CO)C(O)C(O)C6O)(CCC(C)C5(C)O)CCC34C)C2(C)C)C(O)C(O)C1O [Compound 1, 3β-(6-O-n-butyl-D-glucuronopyranosyl)-19α-hydroxy-urs-12-en-28-oic acid 28-O-β-D-glucopyranoside]	–	–	11.6 ± 0.89 µM	99.74 ± 1.21	99.28 ± 1.32	99.35 ± 1.26	99.62 ± 1.89	99.70 ± 1.36	–
C[C@@H]1CC[C@]2(C(=O)O[C@@H]3O[C@H](CO)[C@@H](O)[C@H](O)[C@H]3O)CC[C@]3(C)C(=CCC4[C@@]5(C)CC[C@H](O[C@@H]6O[C@H](CO)[C@@H](O)[C@H](O)[C@H]6O[C@@H]6O[C@H](CO)[C@@H](O[C@@H]7O[C@H](CO)[C@@H](O)[C@H](O)[C@H]7O)[C@H](O)[C@H]6O)C(C)(C)C5CC[C@]43C)[C@@H]2[C@]1(C)O (stereo partly drawn) [Compound 3, hylonoside II]	–	–	9.7 ± 0.86 µM	91.74 ± 1.11	90.28 ± 1.82	89.35 ± 1.35	88.62 ± 1.21	88.50 ± 1.32	showed cytotoxic activity
C=C1CC[C@]2(C(=O)O[C@@H]3O[C@H](CO)[C@@H](O)[C@H](O)[C@H]3O[C@@H]3O[C@@H](C)[C@H](O)[C@@H](O)[C@H]3O)CC[C@]3(C)C(=CC[C@@H]4[C@@]5(C)CC[C@H](O[C@@H]6OC[C@H](O)[C@H](O[C@@H]7O[C@H](CO)[C@@H](O)[C@H](O)[C@H]7O[C@@H]7O[C@H](CO)[C@@H](O)[C@H](O)[C@H]7O)[C@H]6O[C@@H]6O[C@@H](C)[C@H](O)[C@@H](O)[C@H]6O)C(C)(C)[C@@H]5CC[C@]43C)[C@@H]2[C@]1(C)O [Compound 7, ilekudinoside F]	–	–	55.2 ± 3.26 µM	101.55 ± 1.42	101.68 ± 1.36	101.76 ± 1.47	101.38 ± 1.58	101.68 ± 1.38	–
C[C@H]1CC[C@]2(C(=O)O[C@@H]3O[C@H](CO)[C@@H](O)[C@H](O)[C@H]3O)CC[C@]3(C)C(=CCC4[C@@]5(C)CC[C@H](O[C@@H]6OC[C@H](O)[C@H](OS(=O)(=O)O)[C@H]6O)C(C)(C)C5CC[C@]43C)C2[C@]1(C)O (stereo partly drawn) [Compound 4, ilexpublesnin H]	–	–	33.5 ± 2.11 µM	99.36 ± 1.31	99.37 ± 1.21	99.67 ± 1.32	99.57 ± 1.53	99.33 ± 1.30	–
CCCCOC(=O)C1OC(OC2CCC3(C)C(CCC4(C)C3CC=C3C5C(C(=O)OC6OC(CO)C(O)C(O)C6O)(CCC(C)C5(C)O)CCC34C)C2(C)C)C(O)C(OS(=O)(=O)O)C1O [Compound 2, 3β-(3-O-sulphonyl-6-O-n-butyl-D-glucuronopyranosyl)-19α-hydroxy-urs-12-en-28-oic acid 28-O-β-D-glucopyranoside]	–	–	12.3 ± 1.21 µM	98.32 ± 2.05	98.25 ± 1.87	98.16 ± 1.25	98.56 ± 1.37	98.26 ± 1.88	–
C[C@H]1CC[C@]2(C(=O)O[C@@H]3O[C@H](CO)[C@@H](O)[C@H](O)[C@H]3O)CC[C@]3(C)C(=CCC4[C@@]5(C)CC[C@H](O[C@@H]6OC[C@@H](O)[C@H](O)[C@H]6OS(=O)(=O)O)C(C)(C)C5CC[C@]43C)C2[C@]1(C)O (stereo partly drawn) [Compound 5, ilexpublesnin I]	–	–	50.7 ± 3.25 µM	98.21 ± 1.93	99.33 ± 1.54	99.32 ± 1.32	99.21 ± 1.66	99.13 ± 1.28	–
C[C@@H]1CC[C@]2(C(=O)O[C@@H]3O[C@H](CO)[C@@H](O)[C@H](O)[C@H]3O)CC[C@]3(C)C(=CCC4[C@@]5(C)CC[C@H](OS(=O)(=O)[O-])[C@](C)(CO)C5CC[C@]43C)[C@@H]2[C@]1(C)O.[Na+] (stereo partly drawn) [Compound 6, ilexoside XXXV]	–	–	22.3 ± 2.23 µM	102.21 ± 1.03	102.28 ± 1.56	103.35 ± 1.58	103.26 ± 1.28	103.22 ± 1.89	–

Source: article PMC6152231, “Anti-Inflammatory Triterpene Glycosides from the Roots of Ilex dunniana Levl” (Molecules : A Journal of Synthetic Chemistry and Natural …, 2017)
